Experimental data from ChEMBL document CHEMBL1201862, “PubChem BioAssay data set” (2004).
Values belong to the compound of their own block, whether it stands above or below them. Calls of active or inactive are those of the source.

Legend:
[1] = cells; assay type: functional, cell-based
[2] = molecular target: T1, Sentrin-specific protease 8 (Homo sapiens, UniProt Q96LD8); assay type: functional;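 also: kinetic enzyme assay of SENP8 cleaving a Nedd8 protein substrate, dose-response confirmation of screening hits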
T1 sequence (Q96LD8 whole entry): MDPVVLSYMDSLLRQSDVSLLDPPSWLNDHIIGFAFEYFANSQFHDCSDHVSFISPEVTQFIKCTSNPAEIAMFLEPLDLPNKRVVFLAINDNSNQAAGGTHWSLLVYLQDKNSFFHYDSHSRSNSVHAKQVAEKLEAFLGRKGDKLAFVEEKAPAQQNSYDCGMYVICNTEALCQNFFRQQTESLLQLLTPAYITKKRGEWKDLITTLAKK

[3] = molecular target: T2, Neuropeptide Y receptor type 1 (Homo sapiens, UniProt P25929); assay: Fluorescence-based dose response cell-based high-throughput screening assay for agonists of NPY-Y1. [Related pubchem assays: 1697 (Screening assay (NPY-Y1 agonists).), 1359 (Screening assay (NPY-Y2 potentiators or agonists).), 1304 (Screening assay (NPY-Y1 potentiators or agonists).), 1704 (Screening assay (CNGC inhibitors).), 1791 (Summary AID.)]; assay type: functional
T2 sequence (P25929 whole entry): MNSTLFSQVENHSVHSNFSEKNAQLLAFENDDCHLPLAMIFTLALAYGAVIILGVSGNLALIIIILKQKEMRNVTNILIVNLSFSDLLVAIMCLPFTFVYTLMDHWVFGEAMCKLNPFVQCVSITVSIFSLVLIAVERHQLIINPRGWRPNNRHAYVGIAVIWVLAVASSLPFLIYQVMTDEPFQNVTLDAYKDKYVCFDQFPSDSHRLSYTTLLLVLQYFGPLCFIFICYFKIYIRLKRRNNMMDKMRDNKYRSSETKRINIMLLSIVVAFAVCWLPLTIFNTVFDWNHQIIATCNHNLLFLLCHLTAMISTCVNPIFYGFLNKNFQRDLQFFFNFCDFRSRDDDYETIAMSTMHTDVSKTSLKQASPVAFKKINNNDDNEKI

[4] = molecular target: Mast/stem cell growth factor receptor Kit (Homo sapiens, UniProt P10721); assay type: functional;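 also: KIT entry within a kinase panel assay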
[5] = molecular target: Calcium/calmodulin-dependent protein kinase type II subunit delta (Homo sapiens, UniProt Q13557); assay type: functional
[6] = molecular target: Dual specificity protein kinase CLK2 (Homo sapiens, UniProt P49760); assay type: functional
[7] = molecular target: Activated CDC42 kinase 1 (Homo sapiens, UniProt Q07912); assay: Navigating the Kinome. Panel member name: ACK1; assay type: functional
[8] = molecular target: Homeodomain-interacting protein kinase 4 (Homo sapiens, UniProt Q8NE63); assay type: functional
[9] = molecular target: Calcium/calmodulin-dependent protein kinase type 1 (Homo sapiens, UniProt Q14012); assay type: functional
[10] = molecular target: Receptor tyrosine-protein kinase erbB-4 (Homo sapiens, UniProt Q15303); assay type: functional;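 also: ERBB4 member of a kinome-wide kinase profiling panel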
[11] = molecular target: SRSF protein kinase 1 (Homo sapiens, UniProt Q96SB4); assay type: functional;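 also: measured as one member of a kinome-wide kinase profiling panel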
[12] = molecular target: Tyrosine-protein kinase JAK3 (Homo sapiens, UniProt P52333); assay type: functional
[13] = molecular target: 5'-AMP-activated protein kinase catalytic subunit alpha-1 (Homo sapiens, UniProt Q13131); assay type: functional
[14] = molecular target: Calcium/calmodulin-dependent protein kinase type II subunit gamma (Homo sapiens, UniProt Q13555); assay type: functional
[15] = molecular target: Proto-oncogene tyrosine-protein kinase Src (Homo sapiens, UniProt P12931); assay type: functional;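 also: SRC entry within a kinome-wide kinase profiling panel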
[16] = molecular target: Serine/threonine-protein kinase PLK4 (Homo sapiens, UniProt O00444); assay type: functional;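 also: PLK4 measured as one member of a kinome-wide kinase profiling panel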
[17] = molecular target: Leukocyte tyrosine kinase receptor (Homo sapiens, UniProt P29376); assay: Navigating the Kinome. Panel member name: LTK; assay type: functional
[18] = molecular target: Protein kinase C theta type (Homo sapiens, UniProt Q04759); assay: Navigating the Kinome. Panel member name: PRKCQ; assay type: functional

Sequence of Homeodomain-interacting protein kinase 4 (Q8NE63 whole entry): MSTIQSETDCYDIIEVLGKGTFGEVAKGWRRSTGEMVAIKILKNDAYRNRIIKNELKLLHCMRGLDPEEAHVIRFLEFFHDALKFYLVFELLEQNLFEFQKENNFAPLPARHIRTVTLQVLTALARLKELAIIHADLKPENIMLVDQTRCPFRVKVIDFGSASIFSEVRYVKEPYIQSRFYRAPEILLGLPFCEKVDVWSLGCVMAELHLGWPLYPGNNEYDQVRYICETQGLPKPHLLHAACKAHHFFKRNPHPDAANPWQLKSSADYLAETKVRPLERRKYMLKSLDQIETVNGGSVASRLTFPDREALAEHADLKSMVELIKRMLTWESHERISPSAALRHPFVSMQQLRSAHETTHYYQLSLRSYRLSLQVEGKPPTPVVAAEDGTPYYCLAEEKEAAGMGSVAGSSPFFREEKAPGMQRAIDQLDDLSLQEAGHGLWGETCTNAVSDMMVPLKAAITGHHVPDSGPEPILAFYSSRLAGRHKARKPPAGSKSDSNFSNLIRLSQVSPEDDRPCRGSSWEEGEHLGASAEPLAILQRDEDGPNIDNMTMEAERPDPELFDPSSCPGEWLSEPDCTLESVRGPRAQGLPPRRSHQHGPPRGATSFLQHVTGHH
Sequence of Leukocyte tyrosine kinase receptor (P29376 whole entry): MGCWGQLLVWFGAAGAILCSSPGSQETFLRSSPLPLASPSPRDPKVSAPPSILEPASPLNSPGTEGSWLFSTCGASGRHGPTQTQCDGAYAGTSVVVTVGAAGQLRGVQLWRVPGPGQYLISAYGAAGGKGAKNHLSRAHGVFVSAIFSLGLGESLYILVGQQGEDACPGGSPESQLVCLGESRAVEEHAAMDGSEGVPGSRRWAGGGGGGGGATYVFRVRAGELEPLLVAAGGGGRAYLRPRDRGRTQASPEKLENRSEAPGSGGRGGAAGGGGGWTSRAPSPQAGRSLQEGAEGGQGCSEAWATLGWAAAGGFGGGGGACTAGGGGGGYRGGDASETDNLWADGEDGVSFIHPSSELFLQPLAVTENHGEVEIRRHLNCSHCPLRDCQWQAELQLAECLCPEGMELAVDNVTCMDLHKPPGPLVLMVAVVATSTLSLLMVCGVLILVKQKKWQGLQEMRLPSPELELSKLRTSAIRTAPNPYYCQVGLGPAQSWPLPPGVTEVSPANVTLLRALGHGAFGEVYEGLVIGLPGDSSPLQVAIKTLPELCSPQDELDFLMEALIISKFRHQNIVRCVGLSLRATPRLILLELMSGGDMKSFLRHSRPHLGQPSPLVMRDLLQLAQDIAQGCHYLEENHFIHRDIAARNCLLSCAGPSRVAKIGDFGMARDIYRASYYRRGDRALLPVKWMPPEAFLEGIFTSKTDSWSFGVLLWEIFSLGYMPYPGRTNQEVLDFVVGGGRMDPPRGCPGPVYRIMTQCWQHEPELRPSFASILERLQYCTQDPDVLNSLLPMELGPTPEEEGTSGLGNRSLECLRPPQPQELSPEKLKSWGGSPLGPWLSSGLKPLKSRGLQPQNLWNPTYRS
Sequence of Calcium/calmodulin-dependent protein kinase type 1 (Q14012 whole entry): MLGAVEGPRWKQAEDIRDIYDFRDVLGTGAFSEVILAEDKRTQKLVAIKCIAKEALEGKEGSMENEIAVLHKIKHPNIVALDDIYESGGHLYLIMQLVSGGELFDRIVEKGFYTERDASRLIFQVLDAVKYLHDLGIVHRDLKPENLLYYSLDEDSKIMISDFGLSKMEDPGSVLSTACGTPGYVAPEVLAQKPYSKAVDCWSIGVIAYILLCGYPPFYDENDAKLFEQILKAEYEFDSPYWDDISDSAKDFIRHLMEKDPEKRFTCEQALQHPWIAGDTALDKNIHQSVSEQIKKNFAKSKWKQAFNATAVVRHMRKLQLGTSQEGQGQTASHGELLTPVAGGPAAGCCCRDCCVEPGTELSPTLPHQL
Sequence of Activated CDC42 kinase 1 (Q07912 whole entry): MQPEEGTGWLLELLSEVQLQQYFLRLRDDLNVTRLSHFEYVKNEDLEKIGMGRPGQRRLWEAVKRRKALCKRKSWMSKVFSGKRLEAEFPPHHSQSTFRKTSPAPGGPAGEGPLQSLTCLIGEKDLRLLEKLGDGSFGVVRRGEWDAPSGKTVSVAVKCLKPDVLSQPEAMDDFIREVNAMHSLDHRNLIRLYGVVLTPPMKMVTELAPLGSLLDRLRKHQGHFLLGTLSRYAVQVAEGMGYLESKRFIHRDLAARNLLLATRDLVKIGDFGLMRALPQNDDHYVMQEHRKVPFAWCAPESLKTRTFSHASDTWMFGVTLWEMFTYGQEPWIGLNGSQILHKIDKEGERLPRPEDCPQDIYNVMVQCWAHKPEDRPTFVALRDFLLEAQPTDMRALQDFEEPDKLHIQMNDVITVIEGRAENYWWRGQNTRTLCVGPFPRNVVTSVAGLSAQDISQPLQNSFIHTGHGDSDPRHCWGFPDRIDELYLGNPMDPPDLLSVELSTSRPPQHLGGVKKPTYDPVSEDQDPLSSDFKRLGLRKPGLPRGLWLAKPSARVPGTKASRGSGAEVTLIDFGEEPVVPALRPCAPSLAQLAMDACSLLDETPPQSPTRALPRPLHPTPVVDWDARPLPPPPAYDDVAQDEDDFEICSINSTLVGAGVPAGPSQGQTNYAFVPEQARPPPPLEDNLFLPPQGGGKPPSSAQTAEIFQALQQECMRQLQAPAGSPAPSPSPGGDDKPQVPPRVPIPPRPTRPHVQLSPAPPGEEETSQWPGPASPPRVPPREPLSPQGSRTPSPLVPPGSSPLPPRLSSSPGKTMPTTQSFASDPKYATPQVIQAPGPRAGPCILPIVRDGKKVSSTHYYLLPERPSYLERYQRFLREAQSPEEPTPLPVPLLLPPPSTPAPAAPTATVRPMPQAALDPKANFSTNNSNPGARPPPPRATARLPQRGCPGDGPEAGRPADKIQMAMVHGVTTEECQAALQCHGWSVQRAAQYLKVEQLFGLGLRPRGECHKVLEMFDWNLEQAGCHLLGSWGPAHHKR
Sequence of Receptor tyrosine-protein kinase erbB-4 (Q15303 whole entry): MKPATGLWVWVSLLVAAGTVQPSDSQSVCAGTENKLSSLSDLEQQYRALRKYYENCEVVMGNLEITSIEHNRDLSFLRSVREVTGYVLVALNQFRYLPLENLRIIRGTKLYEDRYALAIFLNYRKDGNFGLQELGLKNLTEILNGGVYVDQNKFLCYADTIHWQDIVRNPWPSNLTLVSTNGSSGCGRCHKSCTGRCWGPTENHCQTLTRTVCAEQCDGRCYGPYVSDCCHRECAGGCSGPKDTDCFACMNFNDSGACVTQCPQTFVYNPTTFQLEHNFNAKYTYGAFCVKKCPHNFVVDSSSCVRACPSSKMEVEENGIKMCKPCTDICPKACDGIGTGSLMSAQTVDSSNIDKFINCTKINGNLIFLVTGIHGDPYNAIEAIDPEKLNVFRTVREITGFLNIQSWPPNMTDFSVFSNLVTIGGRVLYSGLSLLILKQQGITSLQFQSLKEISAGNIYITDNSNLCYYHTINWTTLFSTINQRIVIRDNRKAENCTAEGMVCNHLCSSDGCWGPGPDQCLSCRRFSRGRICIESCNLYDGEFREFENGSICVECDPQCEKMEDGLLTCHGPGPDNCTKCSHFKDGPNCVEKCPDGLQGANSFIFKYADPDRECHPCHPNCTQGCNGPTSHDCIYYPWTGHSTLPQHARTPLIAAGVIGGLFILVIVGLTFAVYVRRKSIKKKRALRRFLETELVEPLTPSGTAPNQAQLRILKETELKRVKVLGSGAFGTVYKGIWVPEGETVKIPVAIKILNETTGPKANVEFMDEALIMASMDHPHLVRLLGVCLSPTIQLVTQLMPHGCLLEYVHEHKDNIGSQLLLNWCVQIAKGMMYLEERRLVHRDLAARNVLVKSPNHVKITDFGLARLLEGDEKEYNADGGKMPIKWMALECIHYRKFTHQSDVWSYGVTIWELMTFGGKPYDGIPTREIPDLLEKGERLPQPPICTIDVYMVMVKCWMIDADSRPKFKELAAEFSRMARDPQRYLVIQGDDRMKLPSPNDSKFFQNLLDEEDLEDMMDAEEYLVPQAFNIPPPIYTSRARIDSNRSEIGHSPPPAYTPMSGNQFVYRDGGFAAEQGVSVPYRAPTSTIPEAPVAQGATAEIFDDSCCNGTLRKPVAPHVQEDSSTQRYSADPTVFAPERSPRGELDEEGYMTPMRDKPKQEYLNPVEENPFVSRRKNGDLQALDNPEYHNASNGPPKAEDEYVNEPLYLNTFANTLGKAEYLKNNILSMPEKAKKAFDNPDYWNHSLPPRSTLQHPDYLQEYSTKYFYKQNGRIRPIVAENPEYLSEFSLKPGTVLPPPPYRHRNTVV
Sequence of Dual specificity protein kinase CLK2 (P49760 whole entry): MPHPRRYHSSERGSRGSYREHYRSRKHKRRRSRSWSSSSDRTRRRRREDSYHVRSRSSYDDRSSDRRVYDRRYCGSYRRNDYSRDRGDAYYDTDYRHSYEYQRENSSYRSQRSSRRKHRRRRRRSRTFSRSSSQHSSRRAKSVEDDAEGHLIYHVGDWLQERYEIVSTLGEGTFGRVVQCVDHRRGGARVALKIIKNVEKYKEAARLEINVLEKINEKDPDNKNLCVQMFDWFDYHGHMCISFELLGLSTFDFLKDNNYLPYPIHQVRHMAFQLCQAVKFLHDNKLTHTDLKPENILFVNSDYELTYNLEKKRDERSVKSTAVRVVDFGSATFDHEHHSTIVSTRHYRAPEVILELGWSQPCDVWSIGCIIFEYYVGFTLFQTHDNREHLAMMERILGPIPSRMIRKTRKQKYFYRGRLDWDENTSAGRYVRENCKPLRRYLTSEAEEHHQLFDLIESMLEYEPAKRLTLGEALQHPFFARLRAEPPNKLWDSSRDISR

SMILES: CCOC(=O)c1c(NS(=O)(=O)c2ccccc2)n(CCCOC)c2nc3ccccc3nc12
EC50 [1]: > 350 µM (not active)

SMILES: O=C(COC(=O)c1ccc([N+](=O)[O-])s1)NCCc1ccccc1
IC50 [2]: 3.23 µM (active)

SMILES: COCC/N=c1\scc(-c2cccs2)n1/N=C/c1ccc(O)c(O)c1O
EC50 [3]: > 11.8 µM (not active)

Ki [4]: > 2.51 µM (inactive)
Ki [5]: > 1.58 µM (inactive)
Ki [6]: 0.794 µM (active)
Ki [7]: > 3.98 µM (inactive)
Ki [8]: 1 µM (active)
Ki [9]: > 1.58 µM (inactive)
Ki [10]: > 3.98 µM (inactive)
Ki [11]: > 7.94 µM (inactive)
Ki [12]: 0.2 µM (active)
Ki [13]: 0.2 µM (active)
Ki [14]: 0.794 µM (active)
Ki [15]: > 2 µM (inactive)
Ki [16]: > 2.51 µM (inactive)
Ki [17]: > 2.51 µM (inactive)
Ki [18]: 0.1 µM (active)
SMILES: OC1CCC(Nc2cc(Cl)nc(-c3c[nH]c4ncccc34)n2)CC1 (stereo not drawn)
